Laboratory results as given in paper PMC4949444 (Scientific Reports, 2016).

Tests used:
[1] = tested on: mutant huntingtin (mut-Htt) aggregates in striatal STHdh cells; assay: Mutant huntingtin aggregation in transfected STHdh cells; assay type: cell-based, mouse; details: STHdh cells transfected with exon 1 mut-htt, 94 polyglutamine repeats
Procedure: (§1) Figure 4 In vitro neuroprotective action of VCE-003.2. (a) HiB5 cells were treated with quinolinic acid (QA; 2,5 mM) in the presence or the absence of VCE-003.2 (50 and 250 nM) and cell viability was determined after 24 h by the MTT assay. (b) QA-induced apoptosis measured by cleaved caspase 3 immunostaining (upper panel) of differentiating HiB5 cells was quantified in the presence or absence of VCE-003.2 (250 nM). Cell counts were referred to total cell nuclei counterstained with DAPI and c-caspase3^+ cell quantification is shown in the lower panel. […]. (d) Aggregation of mut-Htt was assessed by fluorescence microscopy in immortalized striatal STHdh transfected cells with a CFP-tagged expression vector of mutant huntingtin (mut-Htt) and counterstained with fluorescent phalloidin (upper panel). […]. Results are representative of three independent experiments. Values are expressed as means ± S. D. *p < 0.05 and ***p < 0.001 vs. Vehicle; ^#p < 0.05 ^##p < 0.01 vs. QA. […]
(§2) The HiB5 hippocampal progenitor cell line (kindly provided by Prof. Z. Kokaia, Lund Stem Cell Center, Sweden) was grown as described[46] in DMEM supplemented with 2 mM glutamine, 1% penicillin/streptomycin and 10% (v/v) fetal calf serum (FCS; Lonza, Switzerland). […] Cell viability was determined after 24 h using the 3-[4,5-dimethylthiazol-2-yl]-2,5-diphenyltetrazolium bromide (MTT) tesresults int. […]

STHdh^Q7/Q7 = assay: Serum deprivation survival of STHdh Q7/Q7 striatal neuroblasts (MTT); assay type: cell-based, mouse; details: STHdh Q7/Q7, 72 h
Procedure: as §1, §2

STHdh^Q111/Q111 = assay: Serum deprivation survival of STHdh Q111/Q111 striatal neuroblasts (MTT); assay type: cell-based, mouse; details: STHdh Q111/Q111, 72 h
Procedure: as §1, §2

HiB5 cells = assay: Quinolinic acid-induced cell death and apoptosis in HiB5 cells; assay type: cell-based
Procedure: as §1, §2

CB2 receptor = molecular target: T1, CB2 receptor (Homo sapiens, UniProt P34972); assay: CB2 receptor binding, [3H]CP55940 competition; details: data not shown; read-out: predicted Ki, CB2 receptor
T1 construct: purchased Perkin-Elmer Life and Analytical Sciences, Boston, MA; host or cells: HEK293 EBNA cells stably expressing the receptor
Procedure: CB1 and CB2 receptor binding affinities were determined by competition studies using [^3H]CP55940 as radioligand and commercial membrane preparations of HEK293 EBNA cells stably expressing the respective receptor type (Perkin-Elmer Life and Analytical Sciences, Boston, MA), following a procedure previously described.

T1 sequence (P34972 whole entry): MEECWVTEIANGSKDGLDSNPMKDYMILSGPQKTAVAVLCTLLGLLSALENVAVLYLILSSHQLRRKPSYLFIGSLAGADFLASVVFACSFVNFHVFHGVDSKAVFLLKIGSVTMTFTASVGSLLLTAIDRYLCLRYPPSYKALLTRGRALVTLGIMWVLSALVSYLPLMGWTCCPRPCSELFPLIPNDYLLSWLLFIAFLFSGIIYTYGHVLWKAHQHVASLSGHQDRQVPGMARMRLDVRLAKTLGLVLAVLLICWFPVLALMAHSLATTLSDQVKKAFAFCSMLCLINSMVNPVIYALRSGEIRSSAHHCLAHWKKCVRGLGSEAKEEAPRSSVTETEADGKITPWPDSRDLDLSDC

CCCCCC1=C(NCC)C(=O)C(C/C=C(\C)CCC=C(C)C)=C(O)C1=O [VCE-003.2] was tested, and the “cells with mut-Htt aggregates” value [1] was “reduced the number of cells with aggregates”, the “neuronal viability after serum deprivation” value (STHdh^Q7/Q7) was “improved” and the “neuronal viability after serum deprivation” value (STHdh^Q111/Q111) was “improved”. For the same molecule, the “QA-induced NP cell death” value (HiB5 cells; HiB5, QA 2,5 mM, VCE-003.2 50 and 250 nM, 24 h MTT) was “fully prevented”, the “QA-induced apoptosis (cleaved caspase 3)” value (HiB5 cells; differentiating HiB5, VCE-003.2 250 nM) was “significantly inhibited” and the Ki (CB2 receptor) was over 40 µM.
